Measured values: patent US20070015737A1, “Compounds for inhibiting diseases and preparing cells for transplantation” (Neurochem (International) Limited, priority 1999, published 2007)
Values joined by “and” are separate entries in the source; they are usually repeats but may differ in a detail not shown here. Equal entries are not always repeated.

Legend:
IAPP [1] = target: T1, IAPP (Homo sapiens, UniProt P10997); assay: Rate of amyloid fibril formation by Thioflavine T spectroscopy (Example 1); format: biochemical; conditions: Thioflavine T fluorescence
T1 sequence (P10997 34-70 limits assumed): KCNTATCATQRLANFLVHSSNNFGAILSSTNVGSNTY
Method: Determination of the Rate of Amyloid Fibril Formation by Thioflavine T Spectroscopy
Detection of ThT fluorescence can be used as a sensitive assay for amyloid fibril formation under different conditions. This assay has been used in experiments to determine the effects of compounds of the invention on amyloid fibril formation.
Human IAPP was dissolved in 40% trifluoroethanol and freeze-dried into conveniently-sized aliquots. IAPP was prepared immediately before the measurements by dissolving in 40% 1,1,1,3,3,3-hexafluoro-2-propanol (HFIP) in water to maintain the peptide in alpha helical conformation and soluble. A stock solution of ThT (2.5 mM) was prepared, 7.9 mg in 10 mL Tris-HCl pH 7.0 and filtered (0.22 μm). Solutions were kept in the dark until use. Fluorescence was examined at 440 nm excitation (slit 5 nm), and emission at 482 nm (slit 10 nm) with stirring. […] of ThT stock (final concentration 62.5 μM) was added to peptide sample and made up to 1 mL in the cuvette. The sample was stirred for 5 min. before taking a reading. Measurements were made at an initial time point (5 min. from sample preparation), at intervals over the next 4-6 h and after overnight incubation at room temperature.

Human IAPP (hIAPP) = target: T2, Human IAPP (hIAPP) (Homo sapiens, UniProt P10997); assay: ELISA assay for quantitative determination of fibril formation (Example 4); format: biochemical; conditions: for proportion of non-fibrillar IAPP in the supernatant: IAPP 20 μM, inhibitor:IAPP molar ratio 10:1, compared to control
T2 construct: Human IAPP (hIAPP) was synthesised by solid state synthesis (Advanced Biotechnologies, UK); purchased Advanced Biotechnologies, UK; host or cells: chemical solid-phase synthesis
T2 sequence (P10997 34-70 limits assumed): T1 sequence (P10997 34-70 limits assumed)
Method: ELISA Assay for Quantitative Determination of Fibril Formation
Human IAPP (hIAPP) was synthesised by solid state synthesis (Advanced Biotechnologies, UK). Human IAPP forms fibrils immediately in aqueous media. Aliquots of IAPP in water (800 μg/ml) were stored frozen at −20° C. until use. These samples contain small numbers of fibrils visible with electron microscopy (em).
Two sets of samples containing IAPP (20 μM) with or without inhibitors (at a molar ratio of 10:1 with IAPP, (20 μM)) were prepared on day 1 in Tris buffer. One set was centrifuged, the supernatant removed and frozen immediately at −20° C. (Time zero time point). The other set was incubated overnight at room temp with shaking (time 24 h time point). On day 2 these samples were spun and supernatant removed to determine the proportion of non-fibrillar IAPP.
To assay IAPP in the supernatant both sets of samples were serially diluted in bicarbonate coating buffer, added to ELISA wells and incubated overnight. Plates were washed in phosphate buffer containing Tween (PBS/Tw)×3. Diluted antiserum raised against human IAPP was incubated on the plate for 90 minutes at 37° C. Following washing in PBS/Tw, alkaline phosphatase conjugated anti-rabbit antisera was incubated for 90 mins. Following washing in PBS/Tw, alkaline phosphate substrate was added and colour allowed to develop for 30 mins. Optical density was read at 405 nm.
Data from all samples was calculated to determine changes of IAPP concentration in the supernatant induced by the candidate substance immediately (i.e. at time zero) or after 24 h incubation. Data in FIG. 1 is expressed as the proportion of non-fibrillar IAPP in the supernatant of test samples compared to control at both time points.

IAPP [2] = target: T1, IAPP; assay: Rate of fibril formation by Thioflavine T spectroscopy (Example 5); format: biochemical; conditions: thioflavine T assay
Method: Determination of the Rate of Fibril Formation by Thioflavine T Spectroscopy
This can be used as a sensitive assay for fibril formation under different conditions. This assay has been used in experiments to determine the effects of some candidate compounds on fibril formation.
Human IAPP was dissolved in 40% Trifuoroethanol and freeze dried into convenient sized aliquots. IAPP (1 mg/ml) was prepared immediately before the measurement by dissolving in 40% HFIP in water to maintain the peptide in alpha confirmation and soluble. A stock solution of Thioflavine T (2.5 mM) was prepared 7.9 mg in 10 ml Tris pH 7.0 and filtered (0.22 micron). Solutions were kept in dark until use. Fluorescence was examined at 440 nm excitation (slit 5 nm), and Emission at 482 nm (Slit 10 nm) with stirring. Twenty five microlitres of Th-T stock (final conc 62.5 μM) was added to peptide sample (8 μg/ml) and made up to 1 ml in the cuvette. The sample was stirred for 5 min before taking a reading. Measurements were made at an initial time points (5 mins from sample preparation) and at intervals over the next 4-6 h after overnight incubation at room temp with and without candidate compound (vi) and a compound known to accelerate fibril formation, polyvinylsulphonate.

IAPP fibrils = target: T3, IAPP fibrils (Homo sapiens, UniProt P10997); assay: Morphological characteristics of IAPP fibrils by transmission electron microscopy (Example 10); format: biochemical; conditions: incubated 48 h, compared with IAPP alone
T3 sequence (P10997 34-70 limits assumed): T1 sequence (P10997 34-70 limits assumed)
Method: Morphological Characteristics of IAPP Fibrils Formed in Mixtures with Candidate Compounds.
IAPP prepared as in Example 3 was incubated with candidate compounds for 48 h Samples were then examined by transmission electron microscopy for the presence of fibrils. […] Long and short unbranching fibrils were present.

IAPP [3] = target: T1, IAPP; assay: Circular dichroism analysis of β-sheet conformation (Example 2); format: biochemical; design: add 10 μL of 10 mg/mL IAPP stock solution (final 100 μg peptide); conditions: changes in ellipticity at 218 nm (β-sheet conformation); peptide:compound 1:10
Method: Circular dichroism analysis was conducted to confirm the activity of certain therapeutic compounds in preventing or inhibiting IAPP-associated fibril formation in accordance with the present disclosure by determining the presence or absence of β-sheet conformation.
The assay, a co-incubation procedure, examines the ability of a compound or substance to inhibit the assembly of amyloid fibrils, e.g., to test for the presence of the amyloidotic b-sheet conformation in the presence of soluble IAPP. Samples are run in the presence and absence (i.e., water alone) of buffering agent, which is done to determine if competitive effects are seen with the ionic buffer (usually phosphate).
Add components used at a molar ratio of 1:10 [peptide:compound]; add 10 μL of 10 mg/mL IAPP stock solution (final 100 μg peptide) to the aqueous solution containing compound to a final volume of 400 μl. The pH of the final assay solution is measured to ensure there is no fluctuation and the spectrum is accumulated using the parameters as shown above.
Add desired amount of compound to achieve a 1:10 molar ratio in 10 mM phosphate buffer, pH 7. Add 10 μL of 10 mg/mL IAPP stock solution (final peptide 100 μg) to the phosphate buffered solution containing the compound and bring to a final volume of 400 μL. The pH of the final assay solution is measured to ensure there is no fluctuation and the spectrum is accumulated using the parameters as shown above.
In both assays, a control sample is run with each test group. This control contains peptide only in water or buffer at a similar final volume of 400 μl. Spectra for the control are collected initially (first run) and at the end of the test (final run) to ensure that the peptide has not undergone extensive aggregation during the course of the assay. Spectra for the controls are used to compare with the measurements obtained with the treated samples.
Make fresh 1 mg/mL stock solution of IAPP in 10 mM phosphate buffer, pH 7. Add desired amount of compound to achieve a 1:10 molar ratio in 10 mM phosphate buffer, pH 7. Incubate for 3 days at room temperature. Make up to final volume of 400 μL with 10 mM phosphate buffer, pH 7. The pH of the final assay solution is measured to ensure there is no fluctuation and the spectrum is accumulated using the parameters as shown above. A similar control is run for comparative purposes.
Plots of the spectra (control and treated) are individually assembled and the changes in ellipticity at 218 nm are examined. This minimum is directly correlated with the amount of peptide in β-sheet conformation present in the sample. Changes in either a positive or negative direction are noted and a relative value (“active” or “not active”) assigned to the compound as a measure of activity.

[4] = test system: amyloid in transgenic islets cells expressing human IAPP; assay: Electron micrograph analysis of amyloid in cultured transgenic islets; format: cell-based, mouse
Text: These are used as a test system for determining the toxicity and effect of putative amyloid inhibitors in short term culture systems. Whereas normal mice can be used to determine toxicity of compounds added to the media, amyloid fibrils form only in murine islets isolated from transgenic mice expressing the gene for human IAPP (transgene incorporation was confirmed by PCR). These islets are isolated in a similar way to that of human islets and are handpicked from the digest and cultured in 16.7 mM glucose as above. Amyloid fibrils formed within 4 days of culture and can be quantified by quantitative electron microscopy. […] The cells were cultured for 6 days in 11.1 mM glucose and RPMI.
Transgenic islets cells were cultured as described above, for 7 days and the media changed every two days. At the end of the culture period the islets were fixed in 2.5% glutaraldehyde in 0.1M sodium phosphate buffer (pH 7.2) for one hour and post-fixed in 1% osmium tetroxide, and embedded in Spurr's resin (Taab Laboratories, Reading, UK) or contrast enhanced in 2% Uranyl Acetate, dehydrated in methanol and embedded in LRGold (Taab, as previous). Ultrathin sections of the islets were mounted on formvar coated nickel grids. Amyloid was identified by immunogold labelling of tissue sections with an antisera raised to human IAPP 1-37, human IAPP 17-37, rat IAPP 1-37 and goat anti-rabbit gold conjugate (10 nm diameter) either from Biocell, Cardiff, UK or Sigma or by use of protein A gold. Grids were examined in a JOEL electron microscrope at an excitation voltage of 80 kV.
Images of 3 islet sections at a low magnification were prepared. A montage of each islet was made from electron micrographs and the areas of both intra and extra cellular amyloid identified and marked. The total islet area, together with the area of intra and extra cellular amyloid was then calculated using image analysis (Kontron Image Processor). 3 separate islets were examined for each condition.

[5] = Average of 3 islets, 7 days culture
[6] = individual islets 1-3, 7 days culture

Compound	IAPP-associated fibril assembly (IAPP [1])	proportion of non-fibrillar IAPP in the supernatant (Human IAPP (hIAPP))	time point at which the increase of non-fibrillar IAPP was greater (Human IAPP (hIAPP); time zero versus time 24 h)	time for which the reduced fluorescence level was stable (IAPP [2])	fluorescence units (IAPP [2]; compared with IAPP alone)	presence and morphology of fibrils (IAPP fibrils)	Activity (IAPP [3])	Extra amyloid % of total [4, 5] [%]	Extra amyloid area [4, 5] [μm^2]	Extra amyloid % of total [4, 6]	Extra amyloid area [4, 6]
O=C(O)C(F)(F)C(F)(F)C(F)(F)C(=O)O [vi, Hexafluoroglutaric acid]	inhibit or prevent IAPP-associated fibril assembly	increase the proportion of non-fibrillar IAPP in the supernatant	greater at time zero	up to 15 hrs	reduced fluorescence below the level recorded for IAPP alone	contained fewer fibrils which were apparently short and long and not aggregated	Active				
COc1ccc(S(=O)(=O)O)c2cccnc12 [vii, 8-methoxyquinoline-5-sulfonic acid]		increase the proportion of non-fibrillar IAPP in the supernatant					Active	1.6	86.8	1.9% and 0.5% and 3.4%	98.73 μm^2 and 37.9 μm^2 and 123.99 μm^2
